In one assay the test system is RAW 264.7 cells. The experiment in a line: Nitric oxide suppression assay (IFNγ-induced NO production). The format is cell-based, mouse. Conditions: for IC50: Mus musculus, RAW264.7, RAW 264.7 cells, 2 h pretreatment, 20 ng/mL interferon gamma 24 h, nitrite by Griess, read-out: NO IC50 (nM) (Mean ± SD); for NO IC50 Relative to RTA 402 (fold) (Mean ± SD): average of ratios from replicate experiments, benchmark RTA 402. The protocol: Tissue Culture. RAW 264.7, a mouse macrophage cell line, was obtained from American Type Culture Collection (Manassas VA) and maintained in the log phase of growth in Roswell Park Memorial Institute Medium 1640 (RPMI 1640) supplemented with 10% heat inactivated fetal bovine serum (FBS) and 1% penicillin-streptomycin. Cells were cultured and maintained in a humidified incubator at 37° C. under 5% CO2. Cells were sub-cultured every 3 days. […] All cell culture supplies were obtained from Life Technologies (Grand Island, NY) and VWR (Radnor, PA). Nitric Oxide Suppression Assay. RAW 264.7 cells were plated 1 day in advance of experimental treatments at a concentration of 30,000 cells per well onto Falcon-96 well clear bottom plates (Corning, NY) in a total volume of 200 μL per well using RPMI 1640 supplemented with 0.5% fetal bovine serum and 1% penicillin-streptomycin. The next day, cells were pretreated with compounds serially diluted from 1000× stocks. All compounds were dissolved in dimethyl sulfoxide (DMSO) at 10 mM stock solutions. Compounds were subsequently diluted in DMSO and RPMI 1640. Each well received a final concentration of 0.1% DMSO. Cells were pretreated for 2 hours and incubation at 37° C., followed by treatment with 20 ng/mL of interferon gamma (R&D Systems, Minneapolis, MN) per well for 24 hours. […] Afterwards, 50 μL of cell culture supernatant was transferred from each well into a new Falcon-96 well clear bottom plate. […] Afterwards, air bubbles were removed using ethanol vapor and absorbance was measured using a Spectramax M2e plate reader with a wavelength set to 525 nm. Viability was assessed using WST-1 cell proliferation reagent from Roche (Basel, Switzerland). After media was removed for the Nitric Oxide suppression assay, 15 μL of WST-1 reagent was added to each well of cells. Plates were briefly mixed on an orbital shaker and the cells were incubated at 37° C. for 30 minutes. Absorbance was measured using a Spectramax M2e plate reader with wavelengths set to 440 nm and 700 nm. For the ability of compounds to suppress the increase in nitric oxide release caused by interferon gamma, the absolute amount of nitrite that was produced in each well was extrapolated from the nitrite standards using a linear regression fit. All values were then normalized to the DMSO-interferon gamma treated wells and plotted as percent nitric oxide. IC50 values were calculated with a dependence on WST1 viability using Excel and/or GraphPad Prism (San Diego, CA).

The subject of assay [1] is AREc32 reporter cell line (antioxidant response element of rat Gsta2, Nrf2 target gene). The experiment in a line: AREc32 luciferase reporter activation. The format is cell-based, human. Conditions: for AREc32 EC2X Relative to RTA 402 (fold) (Mean ± SD): average of ratios from replicate experiments, benchmark RTA 402; for EC (2-fold): human, Arec32, 19 h, concentration increasing luminescence signal 2-fold above vehicle, nineteen hours, read-out: AREc32 EC2X (nM) (Mean ± SD). The protocol: […] The effect of several compounds disclosed herein on luciferase reporter activation was assessed in the AREc32 reporter cell line (see Table 10 and Table 11). This cell line is derived from human breast carcinoma MCF-7 cells and is stably transfected with a luciferase reporter gene under the transcriptional control of eight copies of the antioxidant response element from the rat Gsta2 gene, an Nrf2 target gene ([…] et al., 1990). […] Twenty-four hours after plating, cells were treated with vehicle (DMSO) or test compounds at concentrations ranging from 0.03 to 1000 nM for nineteen hours. Media was removed and 100 μL of 1:1 mixture of the One-Glo Luciferase assay reagent and culture medium was added to each well. After incubation for 5 min at room temperature, the luminescence signal was measured on a PHERAstar plate reader. The EC2X value was determined using Excel and GraphPad Prism software. The fold increase in luminescence signal for cells treated with each concentration of compound relative to cells treated with vehicle was determined and a dose-response curve was generated. The dose-response curve was fit using nonlinear regression analysis and used to extrapolate the EC2X value.

As for `CCNC(=O)NCCc1noc([C@]23CCC(C)(C)C[C@H]2[C@H]2C(=O)C=C4[C@@]5(C)C=C(C#N)C(=O)C(C)(C)[C@@H]5CC[C@@]4(C)[C@]2(C)CC3)n1` [Compound T18], in the assay with RAW 264.7 cells, the IC50 was found to be 1.33 nM and the “NO IC50 Relative to RTA 402 (fold) (Mean ± SD)” value is recorded as 0.86 fold.

On to `COCCn1nnc([C@]23CCC(C)(C)C[C@H]2[C@H]2C(=O)C=C4[C@@]5(C)C=C(C#N)C(=O)C(C)(C)[C@@H]5CC[C@@]4(C)[C@]2(C)CC3)n1` [Compound T9], for which, in the assay with RAW 264.7 cells, the IC50 came out at 1.27 nM and the “NO IC50 Relative to RTA 402 (fold) (Mean ± SD)” value was found to be 0.82 fold.

In the case of `CC1(C)CC[C@]2(c3nc(C4CC4)no3)CC[C@]3(C)[C@H](C(=O)C=C4[C@@]5(C)C=C(C#N)C(=O)C(C)(C)[C@@H]5CC[C@]43C)[C@@H]2C1` [Compound T29], in the assay with RAW 264.7 cells, the 50% inhibitory concentration (IC50) is 4.03 nM and the “NO IC50 Relative to RTA 402 (fold) (Mean ± SD)” value is reported as 2.49 fold. Also, in assay [1], the “AREc32 EC2X Relative to RTA 402 (fold) (Mean ± SD)” value was 2.84 fold and the EC (2-fold) turned out to be 43.7 nM.

Take `C[C@@H]1C(=O)C(C#N)=C[C@]2(C)C3=CC(=O)[C@@H]4[C@@H]5CC(C)(C)CC[C@]5(c5nnc(CF)o5)CC[C@@]4(C)[C@]3(C)CC[C@@H]12` [Compound T38]: in the assay on RAW 264.7 cells, the concentration for half-maximal inhibition (IC50) came out at 0.46 ± 0.02 nM and the “NO IC50 Relative to RTA 402 (fold) (Mean ± SD)” value is given as 0.20 ± 0.02 fold. For the same compound, in assay [1], the “AREc32 EC2X Relative to RTA 402 (fold) (Mean ± SD)” value was 0.43 ± 0.14 fold and the EC (2-fold) came to 3.95 ± 1.12 nM.

For the compound `CC(=O)OCCc1noc([C@]23CCC(C)(C)C[C@H]2[C@H]2C(=O)C=C4[C@@]5(C)C=C(C#N)C(=O)C(C)(C)[C@@H]5CC[C@@]4(C)[C@]2(C)CC3)n1` [Compound T14], in the assay on RAW 264.7 cells, the IC50 came to 0.48 nM and the “NO IC50 Relative to RTA 402 (fold) (Mean ± SD)” value came to 0.31 fold.

For the compound `CC(=O)OCCn1nnc([C@]23CCC(C)(C)C[C@H]2[C@H]2C(=O)C=C4[C@@]5(C)C=C(C#N)C(=O)C(C)(C)[C@@H]5CC[C@@]4(C)[C@]2(C)CC3)n1` [Compound T8], in the assay with RAW 264.7 cells, the IC50 came out at 0.64 nM and the “NO IC50 Relative to RTA 402 (fold) (Mean ± SD)” value is 0.41 fold.

On to `CC1(C)CC[C@]2(c3nc(C4CCC4)no3)CC[C@]3(C)[C@H](C(=O)C=C4[C@@]5(C)C=C(C#N)C(=O)C(C)(C)[C@@H]5CC[C@]43C)[C@@H]2C1` [Compound T31], for which, in the assay with RAW 264.7 cells, the IC50 was found to be 9.34 nM and the “NO IC50 Relative to RTA 402 (fold) (Mean ± SD)” value is reported as 5.76 fold.

Take `CC1(C)CC[C@]2(c3nc(C(C)(C)C)no3)CC[C@]3(C)[C@H](C(=O)C=C4[C@@]5(C)C=C(C#N)C(=O)C(C)(C)[C@@H]5CC[C@]43C)[C@@H]2C1` [Compound T28]: in the assay on RAW 264.7 cells, the half-inhibitory concentration (IC50) is 22.3 nM and the “NO IC50 Relative to RTA 402 (fold) (Mean ± SD)” value was found to be 13.75 fold.

With `COC(=O)NCCc1noc([C@]23CCC(C)(C)C[C@H]2[C@H]2C(=O)C=C4[C@@]5(C)C=C(C#N)C(=O)C(C)(C)[C@@H]5CC[C@@]4(C)[C@]2(C)CC3)n1` [Compound T17], in the assay with RAW 264.7 cells, the concentration for half-maximal inhibition (IC50) was 0.75 nM and the “NO IC50 Relative to RTA 402 (fold) (Mean ± SD)” value is 0.48 fold.

For the compound `Cc1nnc([C@]23CCC(C)(C)C[C@H]2[C@H]2C(=O)C=C4[C@@]5(C)C=C(C#N)C(=O)[C@@H](C)[C@@H]5CC[C@@]4(C)[C@]2(C)CC3)o1` [CC4, reference compound], in the assay with RAW 264.7 cells, the IC50 turned out to be 0.66 ± 0.06 nM and the “NO IC50 Relative to RTA 402 (fold) (Mean ± SD)” value worked out at 0.51 ± 0.02 fold. The EC (2-fold) in assay [1] came out at 8.12 ± 3.53 nM.

With `CC1(C)CC[C@]2(c3nc(C4CCCC4)no3)CC[C@]3(C)[C@H](C(=O)C=C4[C@@]5(C)C=C(C#N)C(=O)C(C)(C)[C@@H]5CC[C@]43C)[C@@H]2C1` [Compound T32], in the assay with RAW 264.7 cells, the IC50 is 20.8 nM and the “NO IC50 Relative to RTA 402 (fold) (Mean ± SD)” value is 12.84 fold.

As to `CCCc1noc([C@]23CCC(C)(C)C[C@H]2[C@H]2C(=O)C=C4[C@@]5(C)C=C(C#N)C(=O)C(C)(C)[C@@H]5CC[C@@]4(C)[C@]2(C)CC3)n1` [Compound T26], in the assay on RAW 264.7 cells, the 50% inhibitory concentration (IC50) was 7.82 nM and the “NO IC50 Relative to RTA 402 (fold) (Mean ± SD)” value turned out to be 4.83 fold.

In the case of `CC1(C)CC[C@]2(c3nc(C4CCCCC4)no3)CC[C@]3(C)[C@H](C(=O)C=C4[C@@]5(C)C=C(C#N)C(=O)C(C)(C)[C@@H]5CC[C@]43C)[C@@H]2C1` [Compound T33], in the assay with RAW 264.7 cells, the IC50 worked out at 25.6 nM and the “NO IC50 Relative to RTA 402 (fold) (Mean ± SD)” value is recorded as 15.81 fold.

On to `CC1(C)CC[C@]2(c3nc(CC4CC4)no3)CC[C@]3(C)[C@H](C(=O)C=C4[C@@]5(C)C=C(C#N)C(=O)C(C)(C)[C@@H]5CC[C@]43C)[C@@H]2C1` [Compound T30], for which, in the assay with RAW 264.7 cells, the IC50 is 4.82 nM and the “NO IC50 Relative to RTA 402 (fold) (Mean ± SD)” value was determined as 2.97 fold. Moreover, in assay [1], the “AREc32 EC2X Relative to RTA 402 (fold) (Mean ± SD)” value is listed as 4.19 fold and the EC (2-fold) was determined as 64.5 nM.

In the case of `CC1(C)CC[C@]2(c3nc(CO)no3)CC[C@]3(C)[C@H](C(=O)C=C4[C@@]5(C)C=C(C#N)C(=O)C(C)(C)[C@@H]5CC[C@]43C)[C@@H]2C1` [Compound T42], in the assay on RAW 264.7 cells, the IC50 came to 0.44 nM and the “NO IC50 Relative to RTA 402 (fold) (Mean ± SD)” value is listed as 0.32 fold. For the same compound, in assay [1], the “AREc32 EC2X Relative to RTA 402 (fold) (Mean ± SD)” value came to 0.26 fold and the EC (2-fold) was found to be 2.58 nM.

With `CC(=O)NCCc1noc([C@]23CCC(C)(C)C[C@H]2[C@H]2C(=O)C=C4[C@@]5(C)C=C(C#N)C(=O)C(C)(C)[C@@H]5CC[C@@]4(C)[C@]2(C)CC3)n1` [Compound T19], in the assay on RAW 264.7 cells, the IC50 stood at 0.94 nM and the “NO IC50 Relative to RTA 402 (fold) (Mean ± SD)” value was found to be 0.60 fold.

Regarding `COCCc1noc([C@]23CCC(C)(C)C[C@H]2[C@H]2C(=O)C=C4[C@@]5(C)C=C(C#N)C(=O)C(C)(C)[C@@H]5CC[C@@]4(C)[C@]2(C)CC3)n1` [Compound T15], in the assay with RAW 264.7 cells, the IC50 amounted to 0.6 ± 0.05 nM and the “NO IC50 Relative to RTA 402 (fold) (Mean ± SD)” value worked out at 0.38 ± 0.04 fold.

Take `C[C@@H]1C(=O)C(C#N)=C[C@]2(C)C3=CC(=O)[C@@H]4[C@@H]5CC(C)(C)CC[C@]5(c5noc(CF)n5)CC[C@@]4(C)[C@]3(C)CC[C@@H]12` [Compound T39]: in the assay with RAW 264.7 cells, the half-maximal inhibitory concentration (IC50) is 1.98 nM and the “NO IC50 Relative to RTA 402 (fold) (Mean ± SD)” value was determined as 0.42 fold. In assay [1], the “AREc32 EC2X Relative to RTA 402 (fold) (Mean ± SD)” value turned out to be 0.20 fold and the EC (2-fold) came to 1.88 nM.

As for `CC(C)c1noc([C@]23CCC(C)(C)C[C@H]2[C@H]2C(=O)C=C4[C@@]5(C)C=C(C#N)C(=O)C(C)(C)[C@@H]5CC[C@@]4(C)[C@]2(C)CC3)n1` [Compound T27], in the assay on RAW 264.7 cells, the 50% inhibitory concentration (IC50) came out at 6.03 nM and the “NO IC50 Relative to RTA 402 (fold) (Mean ± SD)” value is 3.72 fold.

The values above are taken from patent US12344631B2, “C17 polar-substituted heteroaromatic synthetic triterpenoids and methods of use thereof” (REATA PHARMACEUTICALS, INC., priority 2019, dated 2025).
